This is an account of results in patent US5601992A, “Peptide library formats and methods relating thereto” (Bunsen Rush Laboratories, Inc., priority 1994, dated 1997).

The target in one experiment is T1, murine bombesin receptor (Mus musculus, UniProt P21729).
T1 construct: expressed in transfected cells; host or cells: melanophores (frog; cultured as in Potenza & Lerner), transfected by electroporation with pJG3.6BR
Put plainly: Screening of bead-released peptides (MPL) on agarose-overlaid melanophores expressing the bombesin receptor; pigment dispersion. The class given is cell-based. Particulars: TFA-gas-cleaved beads on agarose with 2 nM melantonin. The method, then: Melanophore cells (either transfected or non-transfected and as described in the above-identified patent application) were seeded (4×10^6)into 100 mm tissue culture plate (Falcon, N.J.). For transfected cells, the 100 mm tissue culture dishes were pre-coated with Cell-Tak (Collaborative Research, Inc., Massachusetts) at a concentration of […]. Media and conditions unless otherwise stated, were as described in the above-identified patent application. For wild type cells, no media changes are necessary and the cells can be used as soon as 24 hours after plating. For transfected cells, after the cells have attached to the surface (2-3 h), the media was removed and replaced with 20 ml of frog fibroblast conditioned media which is based on 70% L-15 media (Sigma) with 20% fetal bovine serum supplemented with L-Glutamine and Penicillin Streptomycin (Gibco). The cells were incubated at 27° C. for 12-72 h. Then 12-24 before the experiment, the media was removed and the cells were washed gently with 1×10 ml 70% EX-CELL 320 (JRH Biosciences, Kansas; 70% part A 29% water and 1% part B, hereinafter EX-CELL). […]
The bombesin MPL was screened for agonists using melanophore cells expressing the bombesin receptor. […] Pigment dispersion induced by peptide analogues were monitored by video image subtraction (McClintock, T., et al., Anal. Biochem. 209:298-305 (1993)). […]

The next experiment relates to melanophore cells. Briefly: Pigment dispersion assay with a-MSH- and control-peptide-coated beads on a dish plated with melanophore cells. Type of experiment: cell-based. The conditions noted are these: TFA-treated beads on agarose gel with 20 nM melantonin; ten and 30 minutes after placement. Here is the method: a-MSH and its congener peptide (cp) were screened using a culture dish plated with melanophore cells. Melanophores were maintained in cell culture as previously described (A. Daniolos, et al., Pigment Cell Res. 3, 38 (1990); M. N. Potenza, M. R. Lerner, Pigment Cell Res. 4, 186 (1991)). Four million cells were seeded into a 100 mm tissue culture plate (actual internal diameter was 85 mm) in 20 mL of frog fibroblast conditioned media and incubated at 27° C. for 72 h. For an experiment, the media was removed from the dish and replaced with 9 mL of 0.9% Sea Plaque Agarose (FMC Corporation) prepared in fibroblast conditioned media containing 20 nM melantonin. The plate was then placed in the dark for thirty min, after which beads coated with a-MSH or the cp, were sprinkled on the agarose bed and the pigment dispersion response was monitored by photography.

Where no end group is shown, it is not given here.

T1 sequence (P21729 whole entry): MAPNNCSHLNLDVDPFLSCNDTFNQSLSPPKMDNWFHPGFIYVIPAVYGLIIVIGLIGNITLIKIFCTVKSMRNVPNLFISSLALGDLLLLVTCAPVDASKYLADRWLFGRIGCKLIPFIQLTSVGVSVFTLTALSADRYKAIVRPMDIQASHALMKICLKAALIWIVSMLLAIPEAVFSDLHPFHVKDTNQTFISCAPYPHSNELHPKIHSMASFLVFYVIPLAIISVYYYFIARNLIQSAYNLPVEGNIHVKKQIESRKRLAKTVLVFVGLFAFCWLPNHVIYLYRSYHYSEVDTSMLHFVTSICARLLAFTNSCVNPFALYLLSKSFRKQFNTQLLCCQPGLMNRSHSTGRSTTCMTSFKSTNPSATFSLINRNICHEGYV

Turning to litorin, on murine bombesin receptor, the “pigment dispersion response of recombinant melanophores to peptide released from bead (agonist activity)” value is given as “biological activity of the free peptide released from (but still coated on) the bead was confirmed”.
With “Ser-Lys-Glu-Arg-His-Ser-Trp-Tyr-NH2 (SKERHSWY-NH2) [cp, negative control peptide]”, the pigment dispersion response result in the experiment on melanophore cells is “lack of a pigment dispersion response”.
